Assay results reported in patent US10300052B2, “Methods for increasing CFTR activity” (THE UAB RESEARCH FOUNDATION, priority 2012, dated 2019).

Tests used:
[1] = molecular target: T1, WT-CFTR (Homo sapiens, UniProt P13569); test: Short-circuit current (Isc) in Ussing chambers, CFBE41o- cells with stable WT-CFTR expression; format: cell-based; details: ivacaftor 10 μM after amiloride 100 μM and forskolin 100 nM, Cl- secretory gradient; CFBE41o- with stable WT-CFTR (FIG. 1A)
T1 construct: expressed in transfected cells
Experimental: (§1) CFBE41o-cells complemented by stable expression of WT-CFTR (by a lentivirus promoter) are shown in comparison to CFBE41o-cells without WT CFTR complementation (parental cells). *P<0.05, **P<0.005, n=5/condition.
(§2) The CFTR potentiator ivacaftor was chosen as an exemplary CFTR activator. The activity of ivacaftor was examined in WT-CFTR expressing cells.
(§3) Short-circuit current (Isc) was measured under voltage clamp conditions using MC8 voltage clamps and P2300 Ussing chambers (Physiologic Instruments, San Diego, Calif.) as previously described (2). Monolayers were initially bathed on both sides with identical Ringer's solutions containing (in mM) 115 NaCl, 25 NaHCO3, 2.4 KH2PO4, 1.24 K2HPO4, 1.2 CaCl2, 1.2 MgC2, 10 D-glucose (pH 7.4). Bath solutions were vigorously stirred and gassed with 95%02:5% CO2. Short-circuit current measurements were obtained using an epithelial voltage clamp (Physiologic Instruments). A one-second three-mV pulse was imposed every 10 seconds to monitor resistance calculated using Ohm's law. Where indicated, the mucosal bathing solution was changed to a low Cl-solution containing 1.2 NaCl and 115 Na+ gluconate, and all other components as above. Amiloride (100 μM) was added to block residual Na+ current, followed by the agonists forskolin, ivacaftor, and ATP as indicated (minimum five-min observation at each concentration). […]

[2] = molecular target: G551D-CFTR (Homo sapiens, UniProt P13569, G551D); set-up: host or cells: CF patients carrying G551D-CFTR (endogenous protein); details: CF patients with G551D-CFTR; reported; cited from earlier work
[3] = molecular target: T2, CFTR (Homo sapiens, UniProt P13569); test: Isc under voltage clamp in normal explanted human trachea; details: ivacaftor 10 μM after amiloride 100 μM and forskolin 100 nM, voltage clamp (FIGS. 3A, 3B)
T2 construct: from tissue; host or cells: normal human trachea/bronchus from donor explant organs
Experimental: Serial addition of amiloride (100 μM), forskolin (100 nM), and ivacaftor (VX-770; 10 μM) or vehicle control is shown, followed by addition of ATP (10 μM), and CFTR Inh-172 (10 μM×2) as control additions.
The change in Isc following addition of ivacaftor (VX-770) or vehicle control is shown. *P<0.05, n=19, 24 samples/condition.
Ivacaftor also potentiated CFTR-dependent current in normal explanted human trachea examined under voltage clamp conditions (FIGS. 3A and B).
Samples of human trachea tissue were obtained from normal donor explant organs not selected for lung transplantation. Lung, mainstem bronchi, and trachea were resected en-bloc, transferred on wet ice, and large airways excised. Airway tissues were then immersed in ice cold DMEM following resection for transfer, then allowed to equilibrate to room temperature prior to mOCT imaging.
Short-circuit current (Isc) was measured under voltage clamp conditions using MC8 voltage clamps and P2300 Ussing chambers (Physiologic Instruments, San Diego, Calif.) as previously described (2). Monolayers were initially bathed on both sides with identical Ringer's solutions containing (in mM) 115 NaCl, 25 NaHCO3, 2.4 KH2PO4, 1.24 K2HPO4, 1.2 CaCl2, 1.2 MgC2, 10 D-glucose (pH 7.4). […] A one-second three-mV pulse was imposed every 10 seconds to monitor resistance calculated using Ohm's law. […]

[4] = molecular target: T2, CFTR; test: Short-circuit current (Isc) in primary non-CF human bronchial epithelial (HBE) cells; format: cell-based; details: ivacaftor 10 μM after pre-stimulation with 100 nM forskolin, compared to forskolin alone (FIG. 1B)
Experimental: In primary non-CF human bronchial epithelial (HBE) cells, ivacaftor also augmented CFTR-dependent anion transport activity following pre-stimulation with 100 nM forskolin, a dose chosen to induce cAMP levels matching CSE-exposed cells, increasing CFTR-dependent short-circuit current (Isc) compared to that stimulated by forskolin alone (FIG. 1B).
Primary human bronchial epithelial (HBE) cells were derived from lung explants after written informed consent was obtained from CF and non-CF subjects with confirmed CFTR genetics by methods described previously. Briefly, tissues were debrided immediately after surgical resection, washed twice in Minimum Essential Media (MEM) with 0.5 mg/ml DTT (Sigma-Aldrich, St. Louis, Mo.) and 25 U/ml DNAse I (Roche, Basel, Switzerland), and then placed in dissociation media containing MEM, 2.5 U/ml DNAse I, 100 μg/ml ceftazidime, 80 μg/ml tobramycin, 1.25 μg/ml amphotericin B, and 4.4 U/ml pronase (Sigma-Aldrich) for 24-36 h at 4° C. […]
Short-circuit current (Isc) was measured under voltage clamp conditions using MC8 voltage clamps and P2300 Ussing chambers (Physiologic Instruments, San Diego, Calif.) as previously described (2). […] A one-second three-mV pulse was imposed every 10 seconds to monitor resistance calculated using Ohm's law. […]

[5] = test system: CFBE41o-cells without WT CFTR complementation (parental cells); test: Short-circuit current (Isc) in Ussing chambers, parental CFBE41o- cells without detectable CFTR expression; format: cell-based, human; details: ivacaftor 10 μM after amiloride 100 μM and forskolin 100 nM; parental cells without detectable CFTR expression (FIG. 1A)
Experimental: as §1, §2, §3

Chain of G551D-CFTR (P13569 whole entry G551D): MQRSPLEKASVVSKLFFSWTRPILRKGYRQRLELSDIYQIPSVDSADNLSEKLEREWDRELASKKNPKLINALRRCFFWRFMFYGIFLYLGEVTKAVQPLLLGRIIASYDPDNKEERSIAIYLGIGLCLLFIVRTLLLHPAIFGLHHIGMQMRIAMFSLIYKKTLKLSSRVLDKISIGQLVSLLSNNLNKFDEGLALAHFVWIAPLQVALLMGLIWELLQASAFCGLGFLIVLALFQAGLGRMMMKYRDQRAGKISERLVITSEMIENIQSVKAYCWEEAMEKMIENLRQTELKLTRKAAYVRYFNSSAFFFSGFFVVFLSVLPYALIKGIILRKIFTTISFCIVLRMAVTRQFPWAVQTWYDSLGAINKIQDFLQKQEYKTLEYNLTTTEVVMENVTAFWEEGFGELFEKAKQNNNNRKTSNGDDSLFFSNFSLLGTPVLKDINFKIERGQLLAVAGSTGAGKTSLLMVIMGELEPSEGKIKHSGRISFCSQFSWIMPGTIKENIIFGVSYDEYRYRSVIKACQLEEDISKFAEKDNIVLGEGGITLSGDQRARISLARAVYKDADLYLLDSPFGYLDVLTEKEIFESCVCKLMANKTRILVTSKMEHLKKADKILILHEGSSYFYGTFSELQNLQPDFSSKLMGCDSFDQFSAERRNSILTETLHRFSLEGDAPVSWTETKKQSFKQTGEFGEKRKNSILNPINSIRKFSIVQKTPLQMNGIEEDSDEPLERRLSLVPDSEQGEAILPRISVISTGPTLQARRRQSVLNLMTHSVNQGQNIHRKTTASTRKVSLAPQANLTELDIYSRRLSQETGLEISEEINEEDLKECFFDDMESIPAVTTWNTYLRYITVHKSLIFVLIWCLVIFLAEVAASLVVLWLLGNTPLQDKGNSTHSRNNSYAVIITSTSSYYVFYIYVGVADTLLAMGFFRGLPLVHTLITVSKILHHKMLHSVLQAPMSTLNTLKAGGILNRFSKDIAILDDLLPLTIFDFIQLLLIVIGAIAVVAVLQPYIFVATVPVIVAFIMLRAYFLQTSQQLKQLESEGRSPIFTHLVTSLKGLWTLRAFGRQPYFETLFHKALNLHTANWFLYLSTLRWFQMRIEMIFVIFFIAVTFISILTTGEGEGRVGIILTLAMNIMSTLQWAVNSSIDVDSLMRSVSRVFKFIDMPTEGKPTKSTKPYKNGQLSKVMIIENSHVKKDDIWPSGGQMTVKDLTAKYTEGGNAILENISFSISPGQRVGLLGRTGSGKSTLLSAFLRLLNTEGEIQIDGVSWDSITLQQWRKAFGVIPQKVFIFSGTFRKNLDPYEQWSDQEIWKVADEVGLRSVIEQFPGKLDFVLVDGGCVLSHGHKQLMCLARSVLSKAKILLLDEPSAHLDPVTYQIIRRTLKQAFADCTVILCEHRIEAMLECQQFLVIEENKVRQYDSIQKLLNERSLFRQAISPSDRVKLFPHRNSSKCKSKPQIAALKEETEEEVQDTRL
T2 sequence (P13569 whole entry): as the sequence (P13569 whole entry G551D) above, with D551G counted along it
T1 sequence (P13569 whole entry): as the sequence (P13569 whole entry G551D) above, with D551G counted along it

CC(C)(C)c1cc(C(C)(C)C)c(NC(=O)c2c[nH]c3ccccc3c2=O)cc1O [ivacaftor]
anion transport (Isc) [1]: robust increases | measures of CFTR activity [2]: improved | pulmonary function [2]: enhanced | CFTR-dependent current [3]: potentiated | CFTR-dependent anion transport activity (short-circuit current, Isc) [4]: augmented | anion transport (Isc) [5]: no activity
